Data as given in ChEMBL document CHEMBL1201862, “PubChem BioAssay data set” (2004).
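Results reflect a 48-hour exposure of cells in 96-well plates to compound at five concentrations. At the GI50, growth is halved.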 Activity calls are given as the source filed them. No stated cut-off is given here; in the data, active = GI50 up to about 1.1 µM and inactive = higher.

Columns and labels:
Assay in all cases: DTP human tumour cell line panel, 48 h
SNB-19 = tested on: SNB-19
SK-MEL-5 = tested on: SK-MEL-5
MDA-MB-231 = tested on: MDA-MB-231
SW-620 = tested on: SW-620
PC-3 = tested on: PC-3
HCT-116 = tested on: HCT-116
OVCAR-8 = tested on: OVCAR-8
SK-MEL-2 = tested on: SK-MEL-2
ACHN = tested on: ACHN
HOP-92 = tested on: HOP-92
T47D = tested on: T47D
UACC-257 = tested on: UACC-257
MDA-MB-435 = tested on: MDA-MB-435
EKVX = tested on: EKVX
NCI-H226 = tested on: NCI-H226
HOP-62 = tested on: HOP-62
NCI/ADR-RES = tested on: NCI/ADR-RES
IGROV-1 = tested on: IGROV-1
BT-549 = tested on: BT-549

Measured: GI50

CCOC(=O)c1cnc2oc3ccc(O)cc3c2c1-c1ccccc1
inactive: SNB-19 52.4 µM | SK-MEL-5 29.2 µM | MDA-MB-231 16.8 µM | SW-620 > 100 µM | PC-3 18 µM | HCT-116 57.8 µM | OVCAR-8 12.7 µM | SK-MEL-2 15.1 µM | ACHN 20.9 µM | HOP-92 16.3 µM | T47D > 100 µM | UACC-257 > 100 µM | MDA-MB-435 19.2 µM | EKVX 57.3 µM | NCI-H226 32.2 µM

Cc1ccc(NC(=S)N/N=C2\C(=O)Nc3ccccc32)cc1
inactive: SNB-19 > 100 µM | SK-MEL-5 59.7 µM | MDA-MB-231 > 100 µM | SW-620 > 100 µM | PC-3 > 100 µM | HOP-62 > 100 µM | NCI/ADR-RES 51.3 µM | HCT-116 > 100 µM | OVCAR-8 > 100 µM | SK-MEL-2 97.7 µM | ACHN 61.5 µM | HOP-92 > 100 µM | T47D > 100 µM | IGROV-1 84.7 µM | UACC-257 > 100 µM | MDA-MB-435 > 100 µM | EKVX 75.9 µM | NCI-H226 92.3 µM

CCOc1cc(/C=C2\N=C(c3ccccc3)N(c3nc4ccccc4s3)C2=O)ccc1O
inactive: SK-MEL-5 18.5 µM | MDA-MB-231 > 100 µM | SW-620 47.9 µM | PC-3 27.9 µM | HOP-62 75 µM | NCI/ADR-RES 24.3 µM | HCT-116 42.3 µM | OVCAR-8 34.7 µM | SK-MEL-2 23.8 µM | ACHN 37.3 µM | HOP-92 > 100 µM | T47D 40.6 µM | IGROV-1 28.6 µM | UACC-257 48.8 µM | MDA-MB-435 40.1 µM | EKVX > 100 µM | NCI-H226 59.8 µM

O=C1CN(c2cccc(Cl)c2)C(=O)CN1CCN1CC(=O)N(c2cccc(Cl)c2)CC1=O
inactive: SNB-19 > 100 µM | SK-MEL-5 > 100 µM | SW-620 > 100 µM | PC-3 > 100 µM | HOP-62 > 100 µM | HCT-116 > 100 µM | OVCAR-8 > 100 µM | ACHN > 100 µM | HOP-92 > 100 µM | IGROV-1 > 100 µM | UACC-257 > 100 µM | MDA-MB-435 > 100 µM | EKVX > 100 µM | BT-549 > 100 µM

NCCC(=O)N[C@@H](Cc1cc(O)c(O)c(SCC(NC(=O)CC[C@H](N)C(=O)O)C(=O)NCC(=O)O)c1)C(=O)O (stereo not given in full)
inactive: SNB-19 > 50 µM | MDA-MB-231 > 50 µM | SW-620 > 50 µM | PC-3 > 50 µM | HOP-62 34.4 µM | NCI/ADR-RES > 50 µM | HCT-116 > 50 µM | SK-MEL-2 > 50 µM | ACHN > 50 µM | HOP-92 > 50 µM | IGROV-1 > 50 µM | UACC-257 > 50 µM | MDA-MB-435 > 50 µM | EKVX > 50 µM | NCI-H226 > 50 µM | BT-549 > 50 µM

O=C(O)CC1C(=O)OC2C3COC(=O)c4cc(O)c(O)c(O)c4-c4c(cc(O)c(O)c4O)C(=O)OC2C(OC(=O)c2cc(O)c(O)c4c2C1C(O)C(=O)O4)C(OC(=O)c1cc(O)c(O)c(O)c1)O3 (stereo not given)
inactive: SNB-19 > 100 µM | SK-MEL-5 > 100 µM | MDA-MB-231 26.2 µM | SW-620 28.8 µM | PC-3 33.8 µM | HOP-62 > 100 µM | NCI/ADR-RES 16.7 µM | HCT-116 14.6 µM | OVCAR-8 20.5 µM | SK-MEL-2 > 100 µM | ACHN 30.4 µM | HOP-92 16.7 µM | T47D 59.8 µM | IGROV-1 30.2 µM | UACC-257 34.1 µM | MDA-MB-435 26.4 µM | EKVX 18 µM | NCI-H226 30.4 µM

C[C@@H](c1ccccc1)N(CC#N)[C@H]1CCC[C@]1(O)/C=C/c1ccc2c(c1)OCO2
inactive: SNB-19 > 25 µM | SK-MEL-5 > 25 µM | MDA-MB-231 > 25 µM | PC-3 > 25 µM | HOP-62 > 25 µM | NCI/ADR-RES > 25 µM | HCT-116 > 25 µM | OVCAR-8 > 25 µM | SK-MEL-2 > 25 µM | ACHN 4.31 µM | HOP-92 > 25 µM | T47D > 25 µM | IGROV-1 > 25 µM | UACC-257 > 25 µM | MDA-MB-435 > 25 µM | EKVX > 25 µM | NCI-H226 > 25 µM

CCOC(=O)CC(=O)N(c1ccc(OC)cc1)C(C(=O)OC)c1ccccc1 (stereo not given)
inactive: SNB-19 > 100 µM | SK-MEL-5 > 100 µM | SW-620 > 100 µM | PC-3 > 100 µM | HOP-62 > 100 µM | NCI/ADR-RES > 100 µM | HCT-116 > 100 µM | OVCAR-8 > 100 µM | SK-MEL-2 > 100 µM | ACHN > 100 µM | T47D > 100 µM | IGROV-1 > 100 µM | UACC-257 > 100 µM | MDA-MB-435 > 100 µM | EKVX > 100 µM
